Test system: myrosinase
Assay: Equimolar conversion of glucoraphanin to sulforaphane by myrosinase, HPLC (Example 4)
Assay type: biochemical, broccoli
Method: A two-part experiment was conducted to further elucidate the role of ascorbic acid in modulating myrosinase activity. All solutions were prepared in 20 mM Tris-buffered saline, at pH 7.5, previously identified as an optimal for myrosinase activity; each sample tube had 100 mg of freeze-dried broccoli powder accurately weighed in as a source of myrosinase. Experiment was conducted at 38° C. for 2 hours, with sample aliquots removed in 30-minute increments, and both glucoraphanin and sulforaphane content assessed by HPLC. […] A control sample contained no ascorbic acid, and the enzymatic conversion proceeded unassisted by a co-factor. PART 1. In the presence of the fixed concentration of ascorbic acid, 1 mmol/Liter, an increasing amount of broccoli seed extract (about 12% glucoraphanin, w/w) was added, ranging from 250 mg to 500 mg. PART 2. While keeping the amount of broccoli seed extract fixed at 250 mg, the concentration of ascorbic acid was varied from 0.4 mmol/Liter to 3.8 mmol/Liter.

[1] = PART 1, GR 250 mg AA 1.0 mM, 0 min
[2] = PART 2, GR 250 mg AA 1.0 mM, 0 min

C[S+]([O-])CCCC/C(=N\OS(=O)(=O)O)S[C@@H]1O[C@H](CO)[C@@H](O)[C@H](O)[C@H]1O (stereo partly shown) [GR, 4-methylsulfinylbutyl glucosinolate]
Glucoraphanin (GR 250 mg AA 2.0 mM, 0 min): 24.94 µmol | Sulforaphane (GR 250 mg AA 2.0 mM, 0 min): 36.05 µmol | Sulforaphane (GR 250 mg AA 2.0 mM, 30 min): 60.85 µmol | Sulforaphane (GR 250 mg AA 2.0 mM, 60 min): 59.78 µmol | Sulforaphane (GR 250 mg AA 2.0 mM, 90 min): 59.85 µmol | Sulforaphane (GR 250 mg AA 2.0 mM, 120 min): 58.08 µmol | Glucoraphanin (GR 250 mg AA 2.9 mM, 0 min): 22.24 µmol | Sulforaphane (GR 250 mg AA 2.9 mM, 0 min): 38.20 µmol | Sulforaphane (GR 250 mg AA 2.9 mM, 30 min): 59.95 µmol | Sulforaphane (GR 250 mg AA 2.9 mM, 60 min): 59.34 µmol | Sulforaphane (GR 250 mg AA 2.9 mM, 90 min): 58.77 µmol | Sulforaphane (GR 250 mg AA 2.9 mM, 120 min): 56.99 µmol | Glucoraphanin (GR 250 mg AA 3.8 mM, 0 min): 21.70 µmol | Sulforaphane (GR 250 mg AA 3.8 mM, 0 min): 37.87 µmol | Sulforaphane (GR 250 mg AA 3.8 mM, 30 min): 58.77 µmol | Sulforaphane (GR 250 mg AA 3.8 mM, 60 min): 57.79 µmol | Sulforaphane (GR 250 mg AA 3.8 mM, 90 min): 58.41 µmol | Sulforaphane (GR 250 mg AA 3.8 mM, 120 min): 56.17 µmol | Glucoraphanin (GR 300 mg AA 1.0 mM, 0 min): 49.31 µmol | Sulforaphane (GR 300 mg AA 1.0 mM, 0 min): 24.18 µmol | Sulforaphane (GR 300 mg AA 1.0 mM, 30 min): 74.40 µmol | Sulforaphane (GR 300 mg AA 1.0 mM, 60 min): 73.04 µmol | Sulforaphane (GR 300 mg AA 1.0 mM, 90 min): 72.19 µmol | Sulforaphane (GR 300 mg AA 1.0 mM, 120 min): 70.56 µmol | Glucoraphanin (GR 350 mg AA 1.0 mM, 0 min): 61.41 µmol | Sulforaphane (GR 350 mg AA 1.0 mM, 0 min): 25.00 µmol | Sulforaphane (GR 350 mg AA 1.0 mM, 30 min): 84.92 µmol | Sulforaphane (GR 350 mg AA 1.0 mM, 60 min): 84.02 µmol | Sulforaphane (GR 350 mg AA 1.0 mM, 90 min): 83.19 µmol | Sulforaphane (GR 350 mg AA 1.0 mM, 120 min): 80.02 µmol | Glucoraphanin (GR 400 mg AA 1.0 mM, 0 min): 71.35 µmol | Sulforaphane (GR 400 mg AA 1.0 mM, 0 min): 26.71 µmol | Glucoraphanin (GR 400 mg AA 1.0 mM, 30 min): 1.56 µmol | Sulforaphane (GR 400 mg AA 1.0 mM, 30 min): 96.60 µmol | Sulforaphane (GR 400 mg AA 1.0 mM, 60 min): 95.38 µmol | Sulforaphane (GR 400 mg AA 1.0 mM, 90 min): 93.39 µmol | Sulforaphane (GR 400 mg AA 1.0 mM, 120 min): 91.16 µmol | Glucoraphanin (GR 500 mg AA 1.0 mM, 0 min): 89.41 µmol | Sulforaphane (GR 500 mg AA 1.0 mM, 0 min): 33.52 µmol | Glucoraphanin (GR 500 mg AA 1.0 mM, 30 min): 1.01 µmol | Sulforaphane (GR 500 mg AA 1.0 mM, 30 min): 120.16 µmol | Sulforaphane (GR 500 mg AA 1.0 mM, 60 min): 116.45 µmol | Sulforaphane (GR 500 mg AA 1.0 mM, 90 min): 118.45 µmol | Sulforaphane (GR 500 mg AA 1.0 mM, 120 min): 112.34 µmol | Glucoraphanin [1]: 40.07 µmol | Sulforaphane [1]: 21.51 µmol | Sulforaphane (PART 1, GR 250 mg AA 1.0 mM, 30 min): 61.95 µmol | Sulforaphane (PART 1, GR 250 mg AA 1.0 mM, 60 min): 60.20 µmol | Sulforaphane (PART 1, GR 250 mg AA 1.0 mM, 90 min): 60.04 µmol | Sulforaphane (PART 1, GR 250 mg AA 1.0 mM, 120 min): 58.25 µmol | Glucoraphanin [2]: 35.24 µmol | Sulforaphane [2]: 26.49 µmol | Sulforaphane (PART 2, GR 250 mg AA 1.0 mM, 30 min): 62.19 µmol | Sulforaphane (PART 2, GR 250 mg AA 1.0 mM, 60 min): 60.62 µmol | Sulforaphane (PART 2, GR 250 mg AA 1.0 mM, 90 min): 60.41 µmol | Sulforaphane (PART 2, GR 250 mg AA 1.0 mM, 120 min): 59.10 µmol | time to complete conversion of glucoraphanin to sulforaphane (almost all the reaction mixtures): ≤ 30 min | stoichiometry of conversion of glucoraphanin to sulforaphane (control sample, without ascorbic acid): equimolar conversion of glucoraphanin to sulforaphane

Source: patent US12648979B2, “Compositions comprising sulforaphane or a sulforaphane precursor and Moringa plant components” (Nutramax Laboratories, Inc., priority 2021, dated 2026)
